Test results taken from patent US8476253B2, “Amide derivative” (Daiichi Sankyo Company, Limited, priority 2009, dated 2013).
Where a name gives a salt, the structure may show the parent alone.

Tests used:
neurokinin NK1 receptor = target: T1, neurokinin NK1 receptor (Cavia porcellus, UniProt P30547); assay: Effect of suppressing substance P-induced airway contraction (in vivo, intratracheal administration); set-up: species or system guinea pig; conditions: guinea pig; guinea pigs, intratracheal administration 60 minutes before 20 μg/kg i.v. SP; AUC of increase in airway pressure over 10 minutes; read-out: ID50 (the source's name)
T1 construct: Using healthy guinea pigs (body weight, 350 to 550 g; Hartley male guinea pigs); from tissue; host or cells: live anaesthetised Hartley male guinea pigs (airway, in vivo)
Description: (§1) Using healthy guinea pigs (body weight, 350 to 550 g; Hartley male guinea pigs), the effect of suppressing airway contraction induced by substance P (SP), which is an NK1 receptor agonist, was examined by a modified method of Konzett-Roessler (Naunyn-Schmiedebergs Arch. Exp. Pathol. Pharmakol. 195, 71 [1940]) using airway pressure as an indicator.
(§2) A tracheal cannula and a venous cannula were attached to a guinea pig anesthetized with pentobarbital (50 mg/mL solution, 0.40 to 0.50 mL/body, subcutaneous administration). An arterial cannula filled with heparin-containing physiological saline (100 U/mL) was further attached, and blood pressure and heart rate were monitored via an amplifier and an instantaneous heart rate meter. Subsequently, gallamine (20 mg/body, intravenous administration) was administered to terminate spontaneous breathing, and then 10 mL/kg of positive pressure breathing (Ugo-Basile Biological Research Apparatus, Cat. No. 7025) was rapidly performed at 60 times/min. The airway pressure during artificial breathing was detected with a pressure transducer (TP-200T or TP-400T; Nihon Kohden Corporation) attached to a side branch of the tracheal cannula, amplified (AP-601G; Nihon Kohden Corporation), and recorded in a recorder. After the airway pressure, blood pressure, and heart rate were stabilized, 20 μg/kg of SP was intravenously administered from the venous cannula to induce airway contraction, and the airway pressure was measured for the following 10 minutes.
The test substance was dissolved in a 5% glucose solution, a 0.5 mL/kg solution was intratracheally administered with an intratracheal administration apparatus (model 1A-1B; Penn-Century, Inc.) 60 minutes before stimulation with SP.
(§3) The AUC of increase in the airway pressure over 10 minutes after administration of SP was determined as the intensity of SP-induced airway contraction and calculated as an ID50 value from the inhibition rate based on the value of the control group (5% glucose solution intratracheal administration group).

neurokinin NK2 receptor = target: T2, neurokinin NK2 receptor (Cavia porcellus, UniProt Q64077); assay: Effect of suppressing neurokinin A-induced airway contraction (in vivo, intratracheal administration); set-up: species or system guinea pig; conditions: guinea pig; guinea pigs, intratracheal administration 60 minutes before 4 μg/kg i.v. NKA; AUC of increase in airway pressure over 10 minutes; read-out: ID50 (the source's name)
T2 construct: Using healthy guinea pigs (body weight, 350 to 550 g; Hartley male guinea pigs); from tissue; host or cells: live anaesthetised Hartley male guinea pigs (airway, in vivo)
T2 sequence (Q64077 1-402): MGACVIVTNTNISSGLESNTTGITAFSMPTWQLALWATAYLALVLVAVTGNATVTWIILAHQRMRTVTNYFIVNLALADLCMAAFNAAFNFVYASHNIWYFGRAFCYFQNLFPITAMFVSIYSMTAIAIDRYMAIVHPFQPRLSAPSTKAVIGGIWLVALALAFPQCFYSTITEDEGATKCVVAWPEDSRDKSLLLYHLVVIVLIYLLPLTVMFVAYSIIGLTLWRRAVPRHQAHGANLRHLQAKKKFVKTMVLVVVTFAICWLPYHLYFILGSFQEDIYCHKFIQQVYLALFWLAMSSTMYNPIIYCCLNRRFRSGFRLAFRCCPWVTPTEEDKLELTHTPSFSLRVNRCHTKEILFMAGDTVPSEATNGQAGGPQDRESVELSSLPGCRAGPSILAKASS
Description: as §1, with “neurokinin A (NKA),” for “substance P (SP),”, “NK2” for “NK1”
as §2, with “and” for “and then”, “stabilized, 4” for “stabilized, 20”, “of NKA” for “of SP”
The test substance was dissolved in a 5% glucose solution, and a 0.5 mL/kg solution was intratracheally administered with an intratracheal administration apparatus (model 1A-1B; Penn-Century, Inc.) 60 minutes before stimulation with NKA.
as §3, with “NKA” for “SP”, “NKA-induced” for “SP-induced”

substance P receptor = target: T3, substance P receptor (Cavia porcellus, UniProt P30547); assay: Test for binding to guinea-pig substance P receptor (crude lung membrane sample); conditions: crude guinea-pig lung membrane sample, [3H]substance P; Ki from IC50 and Kd; read-out: Ki
T3 construct: A preparation of a crude lung membrane sample was prepared; from tissue; host or cells: guinea-pig lung (crude membrane sample)
Description: A preparation of a crude lung membrane sample was prepared, and a test for binding of a test substance to the sample was performed according to the method described in EP0336230A2.
The binding effect of the test substance to a substance P receptor was calculated as an affinity (Ki) of the test substance for the substance P receptor from a 50% binding concentration (IC50) and an affinity (Kd) of [^3H]substance P for the substance P receptor.

T3 sequence (P30547 whole entry): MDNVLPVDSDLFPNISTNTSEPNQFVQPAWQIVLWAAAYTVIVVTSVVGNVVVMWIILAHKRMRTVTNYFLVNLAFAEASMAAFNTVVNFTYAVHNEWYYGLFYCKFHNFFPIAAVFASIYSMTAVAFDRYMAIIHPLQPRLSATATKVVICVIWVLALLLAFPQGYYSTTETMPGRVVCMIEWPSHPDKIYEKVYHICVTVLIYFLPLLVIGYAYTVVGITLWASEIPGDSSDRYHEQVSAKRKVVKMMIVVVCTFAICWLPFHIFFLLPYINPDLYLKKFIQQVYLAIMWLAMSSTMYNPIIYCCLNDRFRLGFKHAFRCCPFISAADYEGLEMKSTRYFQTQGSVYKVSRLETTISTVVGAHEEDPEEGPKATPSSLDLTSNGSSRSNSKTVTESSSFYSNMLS
T1 sequence (P30547 whole entry): as above

CN(CCN1CCC(OC(=O)Nc2ccccc2-c2ccccc2)CC1)C(=O)CCCCCNCc1ccc(C(=O)N(C)CCCN(C)C(=O)CO[C@H]2Cc3ccccc3C23CCN(CC[C@@]2(c4ccc(F)cc4)CN(C(=O)c4cc(C(F)(F)F)cc(C(F)(F)F)c4)CO2)CC3)s1 [Example 1, 1-{2-[{6-[({5-[{3-[({[(2S)-1′-{2-[(5R)-3-[3,5-Bis(trifluoromethyl)benzoyl]-5-(4-fluorophenyl)-1,3-oxazolidin-5-yl]ethyl}-2,3-dihydrospiro[indene-1,4′-piperidin]-2-yl]oxy}acetyl)(methyl)amino]propyl}(methyl)carbamoyl]-2-thienyl}methyl)amino]hexanoyl}(methyl)amino]ethyl}piperidin-4-yl biphenyl-2-ylcarbamate]
ED50 (neurokinin NK1 receptor): 0.0147 mg/kg | ED50 (neurokinin NK2 receptor): 0.0049 mg/kg | Ki (substance P receptor): 1.5 nM

CN(CCN1CCC(OC(=O)Nc2ccccc2-c2ccccc2)CC1)C(=O)CCCCCNc1ccc(C(=O)N(CCCN(C)C(=O)CO[C@H]2Cc3ccccc3C23CCN(CC[C@@]2(c4ccc(F)cc4)CN(C(=O)c4cc(C(F)(F)F)cc(C(F)(F)F)c4)CO2)CC3)C2CC2)cc1 [Example 25, 1-(2-{[6-({4-[{3-[({[(2S)-1′-{2-[(5R)-3-[3,5-Bis(trifluoromethyl)benzoyl]-5-(4-fluorophenyl)-1,3-oxazolidin-5-yl]ethyl}-2,3-dihydrospiro[indene-1,4′-piperidin]-2-yl]oxy}acetyl)(methyl)amino]propyl}(cyclopropyl)carbamoyl]phenyl}amino)hexanoyl](methyl)amino}ethyl)piperidin-4-yl biphenyl-2-ylcarbamate trihydrochloride]
ED50 (neurokinin NK1 receptor): 0.0437 mg/kg | ED50 (neurokinin NK2 receptor): 0.0727 mg/kg | Ki (substance P receptor): 1.7 nM

CN(CCN1CCC(OC(=O)Nc2ccccc2-c2ccccc2)CC1)C(=O)CCCCCCN(C)c1ccc(C(=O)N(C)CCCN(C)C(=O)CO[C@H]2Cc3ccccc3C23CCN(CC[C@@]2(c4ccc(F)cc4)CN(C(=O)c4cc(C(F)(F)F)cc(C(F)(F)F)c4)CO2)CC3)cc1 [Example 40, 1-{2-[{7-[{4-[{3-[({[(2S)-1′-{2-[(5R)-3-[3,5-Bis(trifluoromethyl)benzoyl]-5-(4-fluorophenyl)-1,3-oxazolidin-5-yl]ethyl}-2,3-dihydrospiro[indene-1,4′-piperidin]-2-yl]oxy}acetyl)(methyl)amino]propyl}(methyl)carbamoyl]phenyl}(methyl)amino]heptanoyl}(methyl)amino]ethyl}piperidin-4-yl biphenyl-2-ylcarbamate trihydrochloride]
ED50 (neurokinin NK1 receptor): 0.0191 mg/kg | ED50 (neurokinin NK2 receptor): 0.0573 mg/kg | Ki (substance P receptor): 1.6 nM

CN(CCN1CCC(OC(=O)Nc2ccccc2-c2ccccc2)CC1)C(=O)CCCCCNc1ccc(C(=O)N(C)CCCN(C)C(=O)CO[C@H]2Cc3ccccc3C23CCN(CC[C@@]2(c4ccc(F)cc4)CN(C(=O)c4cc(C(F)(F)F)cc(C(F)(F)F)c4)CO2)CC3)cc1 [Example 72, 1-(2-{[6-({4-[{3-[({[(2S)-1′-{2-[(5R)-3-[3,5-Bis(trifluoromethyl)benzoyl]-5-(4-fluorophenyl)-1,3-oxazolidin-5-yl]ethyl}-2,3-dihydrospiro[indene-1,4′-piperidin]-2-yl]oxy}acetyl)(methyl)amino]propyl}(methyl)carbamoyl]phenyl}amino)hexanoyl](methyl)amino}ethyl)piperidin-4-yl biphenyl-2-ylcarbamate]
ED50 (neurokinin NK1 receptor): 0.0266 mg/kg | ED50 (neurokinin NK2 receptor): 0.0151 mg/kg | Ki (substance P receptor): 1.4 nM

CN(CCN1CCC(OC(=O)Nc2ccccc2-c2ccccc2)CC1)C(=O)CCCCCNc1ccc(C(=O)N(C)CCCN(C)C(=O)CO[C@H]2Cc3ccccc3C23CCN(CC[C@@]2(c4ccc(F)cc4)CN(C(=O)c4cc(C(F)(F)F)cc(C(F)(F)F)c4)CO2)CC3)nc1 [Example 9, 1-(2-{[6-({6-[{3-[({[(2S)-1′-{2-[(5R)-3-[3,5-Bis(trifluoromethyl)benzoyl]-5-(4-fluorophenyl)-1,3-oxazolidin-5-yl]ethyl}-2,3-dihydrospiro[indene-1,4′-piperidin]-2-yl]oxy}acetyl)(methyl)amino]propyl}(methyl)carbamoyl]pyridin-3-yl}amino)hexanoyl](methyl)amino}ethyl)piperidin-4-yl biphenyl-2-ylcarbamate]
ED50 (neurokinin NK1 receptor): 0.0348 mg/kg | ED50 (neurokinin NK2 receptor): 0.0374 mg/kg | Ki (substance P receptor): 2.1 nM

CN(CCN1CCC(OC(=O)Nc2ccccc2-c2ccccc2)CC1)C(=O)COCCCNc1ccc(C(=O)N(C)CCCN(C)C(=O)CO[C@H]2Cc3ccccc3C23CCN(CC[C@@]2(c4ccc(F)cc4)CN(C(=O)c4cc(C(F)(F)F)cc(C(F)(F)F)c4)CO2)CC3)cc1 [Example 27, 1-{2-[{[3-({4-[{3-[({[(2S)-1′-{2-[(5R)-3-[3,5-Bis(trifluoromethyl)benzoyl]-5-(4-fluorophenyl)-1,3-oxazolidin-5-yl]ethyl}-2,3-dihydrospiro[indene-1,4′-piperidin]-2-yl]oxy}acetyl)(methyl)amino]propyl}(methyl)carbamoyl]phenyl}amino)propoxy]acetyl}(methyl)amino]ethyl}piperidin-4-yl biphenyl-2-ylcarbamate trihydrochloride]
ED50 (neurokinin NK1 receptor): 0.0229 mg/kg | ED50 (neurokinin NK2 receptor): 0.0135 mg/kg | Ki (substance P receptor): 1.2 nM

Cc1nc(NCCCCCC(=O)N(C)CCN2CCC(OC(=O)Nc3ccccc3-c3ccccc3)CC2)sc1C(=O)N(C)CCCN(C)C(=O)CO[C@H]1Cc2ccccc2C12CCN(CC[C@@]1(c3ccc(F)cc3)CN(C(=O)c3cc(C(F)(F)F)cc(C(F)(F)F)c3)CO1)CC2 [Example 105, 1-(2-{[6-({5-[{3-[({[(2S)-1′-{2-[(5R)-3-[3,5-Bis(trifluoromethyl)benzoyl]-5-(4-fluorophenyl)-1,3-oxazolidin-5-yl]ethyl}-2,3-dihydrospiro[indene-1,4′-piperidin]-2-yl]oxy}acetyl)(methyl)amino]propyl}(methyl)carbamoyl]-4-methyl-1,3-thiazol-2-yl}amino)hexanoyl](methyl)amino}ethyl)piperidin-4-yl biphenyl-2-ylcarbamate trihydrochloride]
ED50 (neurokinin NK1 receptor): 0.0273 mg/kg | ED50 (neurokinin NK2 receptor): 0.0136 mg/kg | Ki (substance P receptor): 2.1 nM
